From patent publication US4520031A, “Method for reducing toxic effects of methyl-glyoxal bis-guanylhydrazone” (priority 1982, dated 1985)

Test: Solubility of MGBG salts
Type: physicochemical
Description: It is necessary to administer MGBG in a salt form to assure solubility of drug in the administration of fluid such as 5% (w/v) dextrose in water. […] Available MGBG-salt complexes include but are not limited to the dihydrochloride (NSC-32946) and the diacetate (NSC-30689).

CC(C=NNC(=N)N)=NNC(=N)N
solubility relative to dihydrochloride or diacetate salts: not as soluble as the dihydrochloride or diacetate salts
